Source: PubChem BioAssay (NCI)
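Each compound was tested at five concentrations against cells in 96-well plates for 48 hours. GI50 = concentration required for 50% inhibition of growth. TGI marks complete inhibition of growth.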

Experiments:
Test in all cases: NCI tumour cell line growth inhibition, 48 h
CAKI-1 renal = system: CAKI-1 renal
COLO 205 colon = system: COLO 205 colon
HCT-15 colon = system: HCT-15 colon
KM12 colon = system: KM12 colon
NCI-H460 lung = system: NCI-H460 lung
OVCAR-8 ovarian = system: OVCAR-8 ovarian
SF-295 CNS = system: SF-295 CNS
SN12C renal = system: SN12C renal
SNB-19 CNS = system: SNB-19 CNS
UACC-62 melanoma = system: UACC-62 melanoma

Row | Compound | TGI (CAKI-1 renal) [µM] | TGI (COLO 205 colon) [µM] | TGI (HCT-15 colon) [µM] | TGI (KM12 colon) [µM] | TGI (NCI-H460 lung) [µM] | TGI (OVCAR-8 ovarian) [µM] | TGI (SF-295 CNS) [µM] | TGI (SN12C renal) [µM] | TGI (SNB-19 CNS) [µM] | TGI (UACC-62 melanoma) [µM] | GI50 (CAKI-1 renal) [µM] | GI50 (COLO 205 colon) [µM] | GI50 (HCT-15 colon) [µM] | GI50 (KM12 colon) [µM] | GI50 (NCI-H460 lung) [µM] | GI50 (OVCAR-8 ovarian) [µM] | GI50 (SF-295 CNS) [µM] | GI50 (SN12C renal) [µM] | GI50 (SNB-19 CNS) [µM] | GI50 (UACC-62 melanoma) [µM]
1 | COc1ccc(N2C(=O)C3c4[nH]c5ccc(F)cc5c4C4CCC(C(C)(C)C)CC4C3C2=O)cc1 (stereo not drawn) | > 10 | > 10 | > 10 | > 10 | > 10 | > 10 | > 10 | > 10 | > 10 | > 10 |  |  |  |  |  |  |  |  |  | 
2 | O=C(NCCNc1nccc(-c2c(-c3cccc(O)c3)nc3sccn23)n1)c1ccccc1 | 29.6 | 23.8 | 62.2 | 28.5 | 27.5 | 78.8 | 38 | 38.4 | > 100 | 1.37 | 5.92 | 3.99 | 18.8 | 12.1 | 10.4 | 11.1 | 12.9 | 9.04 | 29.4 | 0.211
3 | Cc1nc2[nH]ncn2c(=O)c1CCO | > 10 | > 10 | > 10 |  | > 10 | > 10 |  | > 10 | > 10 | > 10 |  |  |  |  |  |  |  |  |  | 
4 | COc1ccc2c3c([nH]c2c1)CCN(Cc1ccccc1)C3 |  | 38.5 | 39 | 70.5 | 37.7 | > 100 | 28.2 | 78.2 | 44.3 | > 100 |  |  |  |  |  |  |  |  |  | 
5 | CCOC(=O)Cc1cnc(NC(NC(=O)CC)(C(F)(F)F)C(F)(F)F)s1 |  |  | > 100 | > 100 | > 100 |  |  | > 100 | > 100 | > 100 |  |  |  |  |  |  |  |  |  | 
